Earlier results as cited in patent US9120722B1, “Optically active valine complex and a method for producing the same” (Wellman Biosciences Co. Ltd., priority 2014, dated 2015).

Settings: for Solubility in water of the sulfonic acid salt with L-valine: salts with L-valine, prior art U.S. Pat. No. 5,689,001 and No. 6,072,083

Row | Structure (SMILES) | Solubility (aqueous solution) (room temperature, stated as known) | Solubility in water of the sulfonic acid salt with L-valine
1 | CC(C)[C@@H](N)C(=O)O [D-valine] | 8-10% | 
2 | CCc1ccc(S(=O)(=O)O)cc1 [p-ethylbenzene sulfonic acid] |  | 14.5%
3 | CC(C)c1ccc(S(=O)(=O)O)cc1 [p-isopropylbenzene sulfonic acid] |  | 7.8%
